Measured values as given in patent publication US20230106943A1, “ENGINEERED ANTIMICROBIAL PEPTIDES AND USAGE THEREOF” (Peptilogics, Inc., priority 2021, published 2023).
Marks after values point to notes of the source that are not given here. No end group written: not given here.

Assay: Example 4 stability of concentrated solutions: HPLC-UV Assay/RS (method 78917)
Assay type: physicochemical
Conditions: for HPLC-UV Assay / Related Substances Purity / Related Substances Total Impurities: 81.4 mg/mL solution
Method: The peptide formulation of SEQ ID NO: 1 dissolved in a saline solution with a pH of 5.0±0.1 was tested for stability under either −20° C. or 40° C. with 75% relative humidity (RH). […]

[1] = 15.3 mg/mL solution, 40° C. and 75% RH, 1 Month
[2] = 15.3 mg/mL solution, 40° C. and 75% RH, 2 Month
[3] = 15.3 mg/mL solution, 40° C. and 75% RH, 3 Month
[4] = 15.3 mg/mL solution, 40° C. and 75% RH, 6 Month
[5] = 15.3 mg/mL solution, −20° C., 0 Month
[6] = 15.3 mg/mL solution, −20° C., 1 Month
[7] = 15.3 mg/mL solution, −20° C., 2 Month
[8] = 15.3 mg/mL solution, −20° C., 3 Month
[9] = 15.3 mg/mL solution, −20° C., 6 Month
[10] = 15.3 mg/mL solution, −20° C., 9 Month
[11] = 36.7 mg/mL solution, 40° C. and 75% RH, 1 Month
[12] = 36.7 mg/mL solution, 40° C. and 75% RH, 2 Month
[13] = 36.7 mg/mL solution, 40° C. and 75% RH, 3 Month
[14] = 36.7 mg/mL solution, 40° C. and 75% RH, 6 Month
[15] = 36.7 mg/mL solution, −20° C., 0 Month
[16] = 36.7 mg/mL solution, −20° C., 1 Month
[17] = 36.7 mg/mL solution, −20° C., 2 Month
[18] = 36.7 mg/mL solution, −20° C., 3 Month
[19] = 36.7 mg/mL solution, −20° C., 6 Month
[20] = 36.7 mg/mL solution, −20° C., 9 Month
[21] = 72.4 mg/mL solution, 40° C. and 75% RH, 1 Month
[22] = 72.4 mg/mL solution, 40° C. and 75% RH, 2 Month
[23] = 72.4 mg/mL solution, 40° C. and 75% RH, 3 Month
[24] = 72.4 mg/mL solution, 40° C. and 75% RH, 6 Month
[25] = 72.4 mg/mL solution, −20° C., 0 Month
[26] = 72.4 mg/mL solution, −20° C., 1 Month
[27] = 72.4 mg/mL solution, −20° C., 2 Month
[28] = 72.4 mg/mL solution, −20° C., 3 Month
[29] = 72.4 mg/mL solution, −20° C., 6 Month
[30] = 72.4 mg/mL solution, −20° C., 9 Month

## RRWVRRVRRVWRRVVRVVRRWVRR-NH2 [SEQ ID NO: 1]
[1]
  HPLC-UV Assay/RS % Assay: 96.0%
  HPLC-UV Assay/RS % Purity: 99%
  HPLC-UV Assay/RS % Total Impurities: 1.0%
  RRT 1.02 Mean % Area: 1.0%
  RRT […] area (Inj-1): 0.97%
  RRT […] area (Inj-2): 0.95%
  SEQ ID NO: 1 % area (Inj-1): 99.03%
  SEQ ID NO: 1 % area (Inj-2): 99.05%
  SEQ ID NO: 1 Mean % Area: 99.0%
[2]
  HPLC-UV Assay/RS % Assay: 103.8%
  HPLC-UV Assay/RS % Purity: 99%
  HPLC-UV Assay/RS % Total Impurities: 1.4%
  HPLC-UV Assay/RS Impurities RRT/%, RRT 1.02: 1.02/1.0%
  HPLC-UV Assay/RS Impurities RRT/%, RRT 1.08: 1.08/0.2%
  HPLC-UV Assay/RS Impurities RRT/%, RRT 1.10: 1.10/0.2%
[3]
  HPLC-UV Assay/RS % Assay: 96.8%
  HPLC-UV Assay/RS % Purity: 99%
  HPLC-UV Assay/RS % Total Impurities: 1.3%
  HPLC-UV Assay/RS Impurities RRT/%, RRT 1.02: 1.02/1.1%
  HPLC-UV Assay/RS Impurities RRT/%, RRT 1.25: 1.25/0.2%
[4]
  % assay: 97.5%
  HPLC-UV Assay/RS % Purity: 98%
  HPLC-UV Assay/RS % Total Impurities: 2.5%
[5]
  HPLC-UV Assay/RS % Assay: 99.8%
  HPLC-UV Assay/RS % Purity: 99.0%
  HPLC-UV Assay/RS % Total Impurities: 1.0%
  RRT 1.02 Mean % Area: 1.0%
  RRT […] area (Inj-1): 1.05%
  RRT […] area (Inj-2): 1.03%
  SEQ ID NO: 1 % area (Inj-1): 98.95%
  SEQ ID NO: 1 % area (Inj-2): 98.97%
  SEQ ID NO: 1 Mean % Area: 99.0%
[6]
  HPLC-UV Assay/RS % Assay: 103.4%
  HPLC-UV Assay/RS % Purity: 99%
  HPLC-UV Assay/RS % Total Impurities: 0.9%
  RRT 1.02 Mean % Area: 0.9%
  RRT […] area (Inj-1): 0.88%
  RRT […] area (Inj-2): 0.87%
  SEQ ID NO: 1 % area (Inj-1): 99.12%
  SEQ ID NO: 1 % area (Inj-2): 99.13%
  SEQ ID NO: 1 Mean % Area: 99.1%
[7]
  HPLC-UV Assay/RS % Assay: 106.0%
  HPLC-UV Assay/RS % Purity: 99%
  HPLC-UV Assay/RS % Total Impurities: 0.9%
  HPLC-UV Assay/RS Impurities RRT/%, RRT 1.02: 1.02/0.9%
[8]
  HPLC-UV Assay/RS % Assay: 99.7%
  HPLC-UV Assay/RS % Purity: 99%
  HPLC-UV Assay/RS % Total Impurities: 0.9%
  HPLC-UV Assay/RS Impurities RRT/%, RRT 1.02: 1.02/0.9%
[9]
  HPLC-UV Assay/RS % Assay: 102.1%
  HPLC-UV Assay/RS % Purity: 99%
  HPLC-UV Assay/RS % Total Impurities: 0.9%
  HPLC-UV Assay/RS Impurities RRT/%, RRT 1.02: 1.02/0.9%
[10]
  HPLC-UV Assay/RS % Assay: 101.0%
  HPLC-UV Assay/RS % Purity: 100%
  HPLC-UV Assay/RS % Total Impurities: 0.3%
  HPLC-UV Assay/RS Impurities RRT/%, RRT 1.01: 1.01/0.3%
[11]
  % Purity: 99%
  % Total Impurities: 0.9%
  HPLC-UV % Assay: 97.5%
  RRT 1.02 impurity % area (Inj-1): 0.94 % area
  RRT 1.02 impurity % area (Inj-2): 0.91 % area
  RRT 1.02 impurity Mean % Area: 0.9 % Area
  SEQ ID NO: 1 peak % area (Inj-1): 99.06 % area
  SEQ ID NO: 1 peak % area (Inj-2): 99.09 % area
  SEQ ID NO: 1 peak Mean % Area: 99.1 % Area
[12]
  % Purity: 99%
  % Total Impurities: 1.2%
  HPLC-UV % Assay: 101.7%
[13]
  % Purity: 99%
  % Total Impurities: 1.5%
  HPLC-UV % Assay: 97.3%
[14]
  % Purity: 97%
  % Total Impurities: 3.0%
  HPLC-UV % Assay: 94.8%
[15]
  HPLC-UV Assay/RS % Assay: 97.9%
  HPLC-UV Assay/RS % Purity: 99.0%
  HPLC-UV Assay/RS % Total Impurities: 1.0%
  RRT 1.02 Mean % Area: 1.0%
  RRT […] area (Inj-1): 1.02%
  RRT […] area (Inj-2): 1.03%
  SEQ ID NO: 1 % area (Inj-1): 98.98%
  SEQ ID NO: 1 % area (Inj-2): 98.97%
  SEQ ID NO: 1 Mean % Area: 99.0%
[16]
  HPLC-UV Assay/RS % Assay: 98.6%
  HPLC-UV Assay/RS % Purity: 99%
  HPLC-UV Assay/RS % Total Impurities: 0.9%
  RRT 1.02 Mean % Area: 0.9%
  RRT […] area (Inj-1): 0.87%
  RRT […] area (Inj-2): 0.88%
  SEQ ID NO: 1 % area (Inj-1): 99.13%
  SEQ ID NO: 1 % area (Inj-2): 99.12%
  SEQ ID NO: 1 Mean % Area: 99.1%
[17]
  HPLC-UV Assay/RS % Assay: 103.2%
  HPLC-UV Assay/RS % Purity: 99%
  HPLC-UV Assay/RS % Total Impurities: 0.9%
  HPLC-UV Assay/RS Impurities RRT/%, RRT 1.02: 1.02/0.9%
[18]
  HPLC-UV Assay/RS % Assay: 101.7%
  HPLC-UV Assay/RS % Purity: 99%
  HPLC-UV Assay/RS % Total Impurities: 0.9%
  HPLC-UV Assay/RS Impurities RRT/%, RRT 1.02: 1.02/0.9%
[19]
  HPLC-UV Assay/RS % Assay: 99.8%
  HPLC-UV Assay/RS % Purity: 99%
  HPLC-UV Assay/RS % Total Impurities: 0.9%
  HPLC-UV Assay/RS Impurities RRT/%, RRT 1.02: 1.02/0.9%
[20]
  HPLC-UV Assay/RS % Assay: 96.9%
  HPLC-UV Assay/RS % Purity: 100%
  HPLC-UV Assay/RS % Total Impurities: 0.3%
  HPLC-UV Assay/RS Impurities RRT/%, RRT 1.01: 1.01/0.3%
[21]
  % Purity: 99%
  % Total Impurities: 1.1%
  HPLC-UV % Assay: 95.9%
  RRT 1.02 impurity % area (Inj-1): 0.92 % area
  RRT 1.02 impurity % area (Inj-2): 0.90 % area
  RRT 1.02 impurity Mean % Area: 0.9 % Area
  RRT 1.32 impurity % area (Inj-1): 0.17 % area
  RRT 1.32 impurity % area (Inj-2): 0.18 % area
  RRT 1.32 impurity Mean % Area: 0.2 % Area
  SEQ ID NO: 1 peak % area (Inj-1): 98.91 % area
  SEQ ID NO: 1 peak % area (Inj-2): 98.92 % area
  SEQ ID NO: 1 peak Mean % Area: 98.9 % Area
[22]
  % Purity: 99%
  % Total Impurities: 1.5%
  HPLC-UV % Assay: 98.4%
[23]
  % Purity: 98%
  % Total Impurities: 1.8%
  HPLC-UV % Assay: 90.5%
[24]
  % Purity: 96%
  % Total Impurities: 3.6%
  HPLC-UV % Assay: 87.0* %
[25]
  % Puritvy: 99.1%
  % Total Impurities: 1.0%
  HPLC-UV % Assay: 94.2%
  RRT 1.02 impurity % area (Inj-1): 0.97 % area
  RRT 1.02 impurity % area (Inj-2): 0.93 % area
  RRT 1.02 impurity Mean % Area: 1.0 % Area
  SEQ ID NO: 1 peak % area (Inj-1): 99.03 % area
  SEQ ID NO: 1 peak % area (Inj-2): 99.07 % area
  SEQ ID NO: 1 peak Mean % Area: 99.1 % Area
[26]
  % Puritvy: 99%
  HPLC-UV % Assay: 97.7%
  RRT 1.02 impurity % area (Inj-1): 0.88 % area
  RRT 1.02 impurity % area (Inj-2): 0.87 % area
  RRT 1.02 impurity Mean % Area: 0.9 % Area
  SEQ ID NO: 1 peak % area (Inj-1): 99.12 % area
  SEQ ID NO: 1 peak % area (Inj-2): 99.13 % area
  SEQ ID NO: 1 peak Mean % Area: 99.1 % Area
  Total % Impurities: 0.9%
[27]
  % Purity: 99%
  % Total Impurities: 0.9%
  HPLC-UV % Assay: 101.1%
[28]
  % Purity: 99%
  % Total Impurities: 1.0%
  HPLC-UV % Assay: 97.4%
[29]
  % Purity: 99%
  % Total Impurities: 0.9%
  HPLC-UV % Assay: 95.1%
[30]
  % Purity: 100%
  % Total Impurities: 0.5%
  HPLC-UV % Assay: 95.9%
40° C. and 75% RH, 1 Month
  HPLC-UV Assay: 102.5 % LC
  Related Substances Purity: 98%
  Related Substances Total Impurities: 1.7%
40° C. and 75% RH, 2 Month
  HPLC-UV Assay: 102.6 % LC
  Related Substances Purity: 98%
  Related Substances Total Impurities: 2.4%
40° C. and 75% RH, 3 Month
  HPLC-UV Assay: 92.0♦ % LC
  Related Substances Purity: 97%
  Related Substances Total Impurities: 2.6%
−20° C., 0 Month
  HPLC-UV Assay: 108.6 % LC
  Related Substances Purity: 99%
  Related Substances Total Impurities: 0.9%
−20° C., 1 Month
  HPLC-UV Assay: 103.8 % LC
  Related Substances Purity: 99%
  Related Substances Total Impurities: 1.0%
−20° C., 2 Month
  HPLC-UV Assay: 107.8 % LC
  Related Substances Purity: 99%
  Related Substances Total Impurities: 0.9%
−20° C., 3 Month
  HPLC-UV Assay: 104.7 % LC
  Related Substances Purity: 100%
  Related Substances Total Impurities: 0.3%
